Test results taken from ChEMBL document CHEMBL2094269, “WEHI/Eskitis Trypanosoma b. brucei screening data”.

What was measured:
[1] = DNDI: Cytotoxicity against human MRC-5 lung fibroblast cells.; settings: IC50
[2] = tested on: Trypanosoma brucei brucei; test: microbe, parasite or virus in culture; type: functional, organism-based, STIB 795
Description: DNDI: Inhibition of Human African Trypanosomiasis (HAT), STIB 795, in vitro

Row | Structure (SMILES) | IC50 [1] [µM] | IC50 ([2]; Trypanosoma brucei, STIB 795) [µM] | IC50 [2] [µM]
1 | CCCN(CCC)C(=O)Cn1ccc(=N)c2ccccc21 | > 41.7 | 3.52 | –
2 | CN(C)c1cc[n+](Cc2c(Cl)cccc2Cl)cc1 | > 41.7 | ≤ 0.044 | –
3 | CNCCCC1Sc2ccccc2Oc2ccccc21 (centres undefined) | > 41.7 | 4.7 | –
4 | COc1ccc(C(=O)O/N=C(\N)c2ccccn2)c(OC)c1 | > 20.8 | 4.49 | –
5 | COc1ccccc1NC(=O)c1cc(Cl)nnc1Cl | > 20.8 | 5.44 | –
6 | Cc1ccc(C(=O)O/N=C(\N)Cc2cccs2)c(Cl)c1 | > 41.7 | 0.768 | –
7 | COCc1cc(O)nc(Nc2nc3ccc(C)cc3o2)n1 | > 20.8 | 5.16 | –
8 | Cc1ccc2[nH]c(/C(C#N)=C/c3ccc(O)c(O)c3)nc2c1 | > 20.8 | 1.51 | –
9 | CCOC(=O)C(=Cc1cc(=O)c(OC)co1)C(=O)OCC | > 20.8 | 5.5 | –
10 | Cn1c(Cl)cnc1C1CC(=O)c2cc(Cl)ccc2O1 (centres undefined) | > 41.7 | 0.81 | –
11 | N=C(NOC(=O)C12CC3CC(CC(C3)C1)C2)c1ccccc1 | > 20.8 | 0.322 | –
12 | NC(=NOC(=O)c1cccc2ccccc12)c1ccccn1 | > 20.8 | 3.58 | –
13 | CNCc1ccccc1Sc1cccc2ccccc12 | > 41.7 | 4.82 | –
14 | CN(C)c1ccc(/C=C/c2cc[n+](C)c3ccccc23)cc1 | > 2.08 | 0.038 | –
15 | NCC(O)(c1ccc(Cl)cc1)c1ccc(Cl)cc1 | > 20.8 | 5.33 | 5.39
16 | CC[n+]1c(/C=C/c2c[nH]c3ccccc23)ccc2cc(C)ccc21 | 3.71 | 0.294 | –
17 | NCCc1c(-c2ccccc2)n(-c2ccccc2)c2ccccc12 | > 20.8 | 1.49 | –
18 | Cc1cccc2cc(-c3ccccc3)c(N3CCNCC3)nc12 | > 4.17 | 1.45 | –
19 | Cc1nnc(N/N=C/c2cc(Cl)ccc2O)nc1O | 4.74 | 3.65 | –
20 | O=C(N/N=C/c1c(O)ccc2ccccc12)c1cc[nH]n1 | > 20.8 | 2.68 | –
21 | Cc1ccc(/C(=C\CCNCCN)c2ccccc2)cc1 | > 20.8 | 0.269 | –
22 | O=C(N/N=C\c1cc(Cl)ccc1O)c1cccs1 | > 41.7 | 10.9 | –
23 | N/C(=N\OC(=O)c1cccs1)c1ccccc1Cl | > 20.8 | 0.766 | –
24 | CC1(C)OC(C)(C)/C(=C/c2ccc3cccnc3c2)C1=O | > 20.8 | 5.21 | –
25 | Cn1ccc(/C=C2/CCC/C(=C\c3ccn(C)n3)C2=O)n1 | > 20.8 | 5.61 | –

Row | Structure (SMILES) | IC50 [1] [µM] | IC50 ([2]; Trypanosoma brucei, STIB 795) [µM] | IC50 [2] [µM]
26 | COc1ccc(NCC2COc3ccccc3C2=O)cc1 (centres undefined) | > 41.7 | 4.91 | –
27 | COC12C=CC(CC1)C1C(=O)c3cccc(O)c3C(=O)C12 (centres undefined) | > 20.8 | 2.48 | –
28 | CN1C=C/C(=C\C=C2/C=Nc3ccccc32)c2ccccc21 | > 4.17 | 0.311 | –
29 | CC(C)COc1ccc2c(c1)c1c3n2CNCC3CCC1 (centres undefined) | > 20.8 | 2.88 | –
30 | c1ccc(Nc2nc(-c3ccccc3)c3ccccn23)cc1 | > 41.7 | 5.38 | –
31 | CC(C)=CC1C(C(=O)O/N=C(\N)c2ccccc2)C1(C)C (centres undefined) | > 41.7 | 1.16 | –
32 | CC(C)Cc1ccc(C(C)C(=N)NC2CCCCC2)cc1 (centres undefined) | > 20.8 | 5.45 | –
33 | C=CC[n+]1ccc(/C=C/c2ccccc2O)c2ccccc21 | > 41.7 | 5.28 | –
34 | O=C(CNc1ccc(Cl)cc1)N/N=C/c1cccnc1 | > 4.17 | 1.75 | –
35 | C/C(=N\NC(=O)c1cccc2ccccc12)c1ccccn1 | > 4.17 | 2.34 | –
36 | COc1ccc(CCON2C(N)=NC(N)=NC2(C)C)cc1 | > 4.17 | ≤ 3.11 | –
37 | O=C(N/N=C/c1cc(Cl)ccc1O)c1ccc(F)cc1 | > 20.8 | ≤ 10.4 | –
38 | CN(C)CCCOC1=Cc2ccccc2Cc2ccccc21 | > 41.7 | 6.6 | –
39 | Cc1cccc(NC(=O)Cn2cc(CO)c3ccccc32)c1 | > 4.17 | 5.39 | –
40 | C1=C(N2CCNCC2)c2ccccc2Sc2ccccc21 | > 20.8 | 3.16 | –
41 | CCN(CC)c1ccc(C2N(C)c3ccccc3N2C)cc1 | > 41.7 | 2.49 | –
42 | C[n+]1ccccc1C=C1C=CN(c2ccc(Cl)cc2)C=C1 | > 4.17 | 0.028 | –
43 | COc1ccc(C(C)(C)C#Cc2c(C)nc(N)nc2N)cc1 | > 4.17 | ≤ 3.48 | –
44 | Nc1nonc1C(=O)N/N=C/c1c(O)ccc2ccccc12 | > 4.17 | 5.33 | –
45 | CC(C)(C)c1ccc(C(=O)O/N=C(\N)c2ccncc2)cc1 | > 41.7 | 0.95 | –
46 | CCCC[n+]1cc(-c2ccccc2)nc(N2CCCCC2)n1 | > 41.7 | 7.6 | –
47 | CNCCCC1Sc2ccccc2C(C)c2ccccc21 (centres undefined) | > 20.8 | 4.88 | –
48 | O=C1c2cccc3c(N4CCOCC4)ccc(c23)C(=O)N1O | > 41.7 | 8.03 | –
49 | O=C1/C(=C/c2ccccc2)CCS(=O)(=O)c2ccccc21 | > 41.7 | 5.55 | –
50 | CC(=O)NC(c1cccs1)c1ccc2cccnc2c1O (centres undefined) | 0.984 | 0.924 | –

Row | Structure (SMILES) | IC50 [1] [µM] | IC50 ([2]; Trypanosoma brucei, STIB 795) [µM] | IC50 [2] [µM]
51 | COc1ccc2c(c1)S/C(=C/C(=O)c1ccncc1)N2C | > 41.7 | 5.01 | –
52 | COc1ccc(OCC(=O)N/N=C(\C)c2ccccn2)cc1 | > 20.8 | 5.26 | –
53 | O=C(Nc1c2ccccc2nc2ccccc12)c1ccncc1 | 5.82 | 1.2 | –
54 | O=S(=O)(Nc1cccc2cccnc12)c1ccccc1O | > 10.4 | 0.521 | –
55 | CCc1ccccc1-n1c(=O)oc2ccc(Cl)cc2c1=O | > 4.17 | 5.13 | –
56 | O=C(/C=C/c1ccccc1)ONC(=O)c1ccc(Cl)cc1 | > 20.8 | 4.45 | –
57 | Cc1oc2c(O)c(O)ccc2c(=O)c1Oc1ccccc1F | > 41.7 | 0.133 | –
58 | NCCNCCC=C(c1ccc(F)cc1)c1ccc(F)cc1 | > 20.8 | 0.265 | –
59 | COc1cc(OC)nc(-n2ncc(Cl)c(Cl)c2=O)n1 | 4.53 | 5.32 | –
60 | Cn1c2ccccc2c2nnc(N/N=C/c3ccccn3)nc21 | > 1.04 | 0.52 | –
61 | Cc1cc(C)[n+]2nc3n(-c4ccccc4)c(C)cc(C)c-3c2n1 | > 41.7 | 4.46 | –
62 | CCOC(=O)c1cnc2c(OC)cccc2c1NCCCO | > 41.7 | 8.61 | –
63 | CCn1c(Cc2nc3ccccc3n2CC)nc2ccccc21 | > 41.7 | 3.87 | –
64 | COc1ccc(/C(N)=N/OC(=O)c2ccccc2Cl)cc1 | > 20.8 | 1.21 | –
65 | Clc1cc2c(c3ncccc13)OCN(CC1CCCO1)C2 (centres undefined) | 6.72 | 6.81 | –
66 | NCCCCCOC(c1ccc(F)cc1)c1ccc(F)cc1 | > 41.7 | 5.53 | –
67 | CN(C)c1ccc(/C=C/c2cc(-c3ccccc3)o[n+]2C)cc1 | > 2.08 | 0.133 | –
68 | C(=C\c1ccc(OC2CN3CCC2CC3)cc1)/c1ccccc1 (centres undefined) | > 41.7 | 5.31 | –
69 | Cc1ccc(Nc2cc(C)nc3c(C)c(C)cc(N)c23)c(C)c1 | > 41.7 | 5.12 | –
70 | CC(=O)NC(c1ccccc1C)c1ccc2cccnc2c1O (centres undefined) | > 1.04 | 0.655 | –
71 | O=C1C=C/C(=N\Nc2ccc3c(c2)OCCO3)c2cccnc21 | > 20.8 | 1.43 | –
72 | CN(C)CCCC1(O)c2ccccc2C2(CC2)c2ccccc21 | > 10.4 | 0.436 | –
73 | O=C(/C=C/c1ccccc1Cl)Nc1ccc2ccccc2c1 | > 41.7 | 6.12 | –
74 | NCC(c1ccc(Cl)cc1)c1ccc(-c2ccccc2)cc1 (centres undefined) | > 41.7 | 4.59 | –
75 | C/C(=N\NC(=O)c1ccc(Cl)c(Cl)c1)c1ccccn1 | > 41.7 | 5.16 | –

Row | Structure (SMILES) | IC50 [1] [µM] | IC50 ([2]; Trypanosoma brucei, STIB 795) [µM] | IC50 [2] [µM]
76 | Cc1cc(C)n(-c2ccc3c(Cl)cc(Cl)c(O)c3n2)n1 | > 41.7 | 4.79 | –
77 | COc1ccc(/C(N)=N/OC(=O)N2CCOCC2)cc1OC | > 20.8 | 2.98 | –
78 | NCC12CC3CC(C1)CC(c1ccc(Cl)c(Cl)c1)(C3)C2 | > 41.7 | 2.54 | –
79 | CCOC(=O)N/N=C1/c2ccccc2-c2nc3nonc3nc21 | > 20.8 | 0.8 | –
80 | CCOC(=O)c1nc[nH]c1/N=N/c1ccc(O)c2ccccc12 | 3.83 | 0.927 | –
81 | Fc1ccc(C(=CCCn2ccnc2)c2ccc(F)cc2)cc1 | 7.02 | 0.327 | –
82 | C/C(=N\NC(=O)CCCNc1cccc(C)c1)c1ccccn1 | > 10.4 | 3.96 | –
83 | CCc1cc(OCCCCCN2CCNCC2)ccc1Cl | > 20.8 | 0.807 | –
84 | N#CC1=C(N)Oc2[nH]nc(C(F)(F)F)c2C1c1cccs1 (centres undefined) | > 41.7 | 5.51 | 5.41
85 | O=C1/C(=C\c2ccccc2F)COC/C1=C\c1ccccc1F | > 41.7 | 1.6 | –
86 | CCc1ccccc1Nc1nc(-c2ccc(O)cc2O)cs1 | > 41.7 | 3.63 | –
87 | COc1nccnc1N/N=C/c1cc(Cl)cc(Cl)c1O | > 20.8 | 5.19 | –
88 | N=C(N)N/N=C(\c1ccc(Cl)cc1)c1ccc(Cl)s1 | > 4.17 | ≤ 2.46 | –
89 | N/C(Cc1cccc2ccccc12)=N\OC(=O)N1CCOCC1 | > 20.8 | 0.604 | –
90 | Cc1ccc(NCC(=O)N/N=C/c2c(C)cc(O)cc2O)cc1 | > 20.8 | 5.37 | –
91 | CCn1c(=N)n(CCCOc2ccc(F)cc2)c2ccccc21 | > 20.8 | 5.46 | –
92 | Cc1ccc(-n2nnnc2CNC(=O)c2cccs2)cc1C | > 41.7 | 5.85 | –
93 | C[n+]1ccc(/C=C/c2c[nH]c3ccc(Br)cc23)cc1 | > 4.17 | 5.26 | –
94 | CCN(CC)c1ccc(/C=N/NC(=O)c2ccncc2)c(O)c1 | > 4.17 | 3.82 | 7.34
95 | CCN1CCCC(Nc2ccnc3cc4ccccc4cc23)C1 (centres undefined) | 4.95 | 0.275 | –
96 | COc1ccc2c(c1)C(=NN=C(N)N)c1cc(OC)ccc1-2 | > 41.7 | 4.23 | –
97 | NC1c2ccccc2CC1Cc1ccc(Cl)cc1Cl (centres undefined) | > 20.8 | 5.23 | –
98 | CN1/C(=C/C=C/c2oc3ccccc3[n+]2C)Oc2ccccc21 | > 2.08 | 0.253 | –
